Results: paper PMC3758034, “New Insight into the SAR of Pyrimido [4,5-b][1,4] Benzothiazines as 15-lipoxygenase Inhibitors” (Iranian Journal of Basic Medical Sciences, 2013)

Biological target: soybean 15-lipoxygenase (SLO) (Glycine max, UniProt P08170)
Assay: SLO screening assay (spectrophotometric MBTH-DMAB peroxide formation method, 598 nm)
Assay type: biochemical
Details: pH = 8.3 versus pH = 7.0
Protocol: Linoleic acid and two assay solutions (A and B) were prepared in advance. Solution A was 50 mM DMAB in a l00 mM phosphate buffer (pH 7.0). Solution B was a mixture of l0 mM MBTH (3 mL), hemoglobin (5 mg/mL, 3 mL) in 50 mM phosphate buffer at pH 5.0 (25 mL). A linoleic acid solution was prepared by mixing 5 mg of linoleic acid with 0.5 mL ethanol and then diluting with KOH 100 mM to a final volume of 5 mL. […] A control test was done with the same volume of ethanol. After the pre-incubation, linoleic acid solution (50 µL) was added to start the peroxidation reaction, and, 7 min later, solution A (270 µL) and then solution B (130 µL) was added to start the color formation. 5 min later, 200 µL of a 2% SDS solution was added to terminate the reaction. The absorbance at 598 nm was compared with control test. The IC50 results are outlined in Table 1.
It is interesting to note that the aforementioned amino acids with the exception of Val769 and Phe576 are conserved ([18], [19]). […] The inhibitory activity of compounds 1a-f, 2a-f towards SLO enzyme was determined by measuring the amount of peroxide formation. In this method, with the help of a spectrophotometer and by using a mixture of MBTH (3-methyl-2-benzothiazolonhydrazone) and DMAB (3-dimethylaminobenzoic acid) indicators in the presence of hemoglobin at the wavelength of 598 nm, the peroxide concentration was determined ([16]).

soybean 15-lipoxygenase (SLO), sequence (P08170 whole entry): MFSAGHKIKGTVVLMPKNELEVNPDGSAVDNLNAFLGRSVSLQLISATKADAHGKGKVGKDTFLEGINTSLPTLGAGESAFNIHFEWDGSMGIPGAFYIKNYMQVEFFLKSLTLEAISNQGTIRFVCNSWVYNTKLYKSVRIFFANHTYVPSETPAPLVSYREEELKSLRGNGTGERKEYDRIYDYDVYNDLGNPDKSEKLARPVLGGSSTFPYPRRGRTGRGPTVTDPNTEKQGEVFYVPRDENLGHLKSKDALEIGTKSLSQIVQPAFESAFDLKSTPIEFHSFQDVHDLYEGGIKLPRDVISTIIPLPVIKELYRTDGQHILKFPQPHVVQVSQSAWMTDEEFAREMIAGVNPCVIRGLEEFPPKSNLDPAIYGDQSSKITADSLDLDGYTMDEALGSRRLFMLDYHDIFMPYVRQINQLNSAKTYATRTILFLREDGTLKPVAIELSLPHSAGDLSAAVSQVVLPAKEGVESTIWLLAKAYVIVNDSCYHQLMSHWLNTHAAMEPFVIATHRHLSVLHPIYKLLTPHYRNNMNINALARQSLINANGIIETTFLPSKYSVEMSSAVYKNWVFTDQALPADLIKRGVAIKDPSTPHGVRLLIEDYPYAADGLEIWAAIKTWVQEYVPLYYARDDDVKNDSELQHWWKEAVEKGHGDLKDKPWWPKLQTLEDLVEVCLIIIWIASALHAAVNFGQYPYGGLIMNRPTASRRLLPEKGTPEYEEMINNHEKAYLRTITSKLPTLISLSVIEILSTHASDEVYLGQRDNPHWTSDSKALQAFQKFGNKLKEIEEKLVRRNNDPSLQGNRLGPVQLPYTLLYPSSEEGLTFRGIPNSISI

Row | SMILES | IC50 at higher pH
1 | CC1CCN(c2ncc3c(n2)Sc2ccccc2N3)CC1 [1c] | nearly unchanged
2 | Cc1nc(N2CCC(C)CC2)nc2c1Nc1ccccc1S2 [2c] | nearly unchanged
